Source: PubChem BioAssay (NCI)
Where “and” joins values, the source holds several entries; their conditions need not be identical. Identical values can stand only once.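 48-hour exposure; five concentrations; linearly interpolated endpoints. GI50: concentration for 50% inhibition of growth. At the TGI there is no net growth.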

Assays:
Assay in all cases: growth of human tumour cells (NCI), 48 h
[1] = system: A549 NSCLC
[2] = system: DU-145 prostate
[3] = system: HS 578T breast
[4] = system: NCI-H226 lung
[5] = system: NCI-H23 lung
[6] = system: OVCAR-8 ovarian
[7] = system: PC-3 prostate
[8] = system: UACC-257 melanoma
[9] = system: SK-MEL-2 melanoma
[10] = system: A498 renal

Row | SMILES | TGI [1] [µM] | TGI [2] [µM] | TGI [3] [µM] | TGI [4] [µM] | TGI [5] | TGI [6] [µM] | TGI [7] [µM] | TGI [8] [µM] | TGI [9] | GI50 [10] | TGI [10] | GI50 [5] | GI50 [9] | GI50 [2] [µM] | GI50 [4] [µM] | GI50 [7] [µM]
1 | Cc1ccc(S(=O)(=O)NNC(=O)c2cc(C)ccc2NC(=O)C23CC4CC(CC(C4)C2)C3)cc1 | > 100 | > 100 | > 100 | > 100 | > 100 µM | > 100 | > 100 | > 100 |  |  |  |  |  |  |  | 
2 | O=C1CCC2(CCO1)OCCO2 | > 100 | > 100 | > 100 | > 100 | > 100 µM | > 100 | > 100 | > 100 | > 100 µM |  |  |  |  |  |  | 
3 | O=C(NCc1cccc(C(F)(F)F)c1)c1cc2sccc2nc1C(F)(F)F | > 100 |  | 94.1 | > 100 | > 100 µM | > 100 | > 100 | > 100 | > 100 µM |  |  |  |  |  |  | 
4 | Nc1ncnc2c1ncn2C1CCC(COS(N)(=O)=O)C1 (configuration not stated) | > 100 | > 100 | > 100 | > 100 | > 100 µM | > 100 | > 100 | > 100 | > 100 µM |  |  |  |  |  |  | 
5 | [Cl][Pt+2][Cl].[NH-]C1CCCCC1[NH-] (configuration not stated) | > 100 |  |  |  | > 58.2 µM and > 100 µM and 17.5 µM | > 100 |  | > 96.6 | > 74.1 µM and > 100 µM and 29.5 µM | > 100 µM and 12.6 µM | > 100 µM and 65.3 µM | 7.21 µM and 3.26 µM and 1.07 µM | 28.8 µM and 12.8 µM and 3.93 µM |  |  | 
6 | COC(=O)[C@H]1[C@@H](C(C)C)O[C@@H](C(C)C)O[C@H]1C(F)(F)F | > 100 | > 100 | > 100 | > 100 | > 100 µM | > 100 | > 100 | > 100 |  |  | > 100 µM |  |  |  |  | 
7 | Cc1cccc2c1[nH]c1[nH]c(=O)[nH]c(=O)c12 | > 100 | > 100 | > 100 | > 100 | > 100 µM | > 100 |  | > 100 | > 100 µM |  | > 100 µM |  |  |  |  | 
8 | CCOC(=O)C1(C(=O)OCC)[C@H](c2ccccc2)C2=NO[C@@H]3CCC[C@H]1[C@H]23 | > 100 | > 100 | > 100 | > 100 | > 100 µM | > 100 | > 100 | > 100 | > 100 µM |  |  |  |  |  |  | 
9 | Cc1ccc(C(C)(C)C[P+](C)(c2ccccc2)c2ccccc2)cc1 | > 100 |  |  | > 85.3 | > 58.7 µM | > 100 |  | > 26.7 | 19.7 µM |  | > 100 µM |  |  |  |  | 
10 | C[C@@H](O)C(=O)N1[C@@H]2CC3CC[C@]2(CS1(=O)=O)C3(C)C | > 100 | > 100 |  | 65.3 | > 100 µM | > 100 | > 100 | > 100 | > 100 µM |  |  |  |  |  |  | 
11 | CCOC(=O)C(=[N+]=[N-])C(=O)Nc1nn2nnnc2c2ccccc12 | > 100 | > 100 |  | > 100 | > 100 µM | > 100 | > 100 | > 100 | > 100 µM |  | > 100 µM |  |  |  |  | 
12 | CC(=O)Nc1ccc(C(=O)NN2C(=O)C(Cl)C2c2ccc([N+](=O)[O-])cc2)cc1 (configuration not stated) | > 100 |  |  | > 100 | > 100 µM | > 100 |  | > 100 | > 100 µM |  | > 100 µM |  |  |  |  | 
13 | CC(=O)OCC1OC(n2c3c(c(-c4cccc5ccccc45)c(C#N)c2=S)CCCC3)C(OC(C)=O)C(OC(C)=O)C1OC(C)=O (configuration not stated) | > 100 | > 100 |  | > 100 | > 100 µM | > 100 | > 100 | > 100 | > 100 µM |  | > 100 µM |  |  |  |  | 
14 | COC1OC(Cc2nnc(C)o2)C(OCc2ccccc2)C(OCc2ccccc2)C1OCc1ccccc1 (configuration not stated) | > 100 | > 100 | > 100 | 95.6 | 56 µM |  |  | 36.9 | 29.2 µM |  | > 100 µM |  |  |  |  | 
15 | COc1ccc(NC(=O)C(=O)Cc2nc3ccc([N+](=O)[O-])cc3[nH]c2=O)c(OC)c1 | > 100 |  |  | > 100 | > 100 µM |  |  | > 100 | > 100 µM |  | > 100 µM |  |  |  |  | 
16 | COc1ccc(N(C)C(=O)N(C)c2ccc([N+](=O)[O-])cc2)cc1 | > 100 | > 100 | 41.3 | > 100 | > 100 µM | > 100 |  | > 100 | 45.3 µM |  | > 100 µM |  |  |  |  | 
17 | COc1ccc(/C=c2\[nH]c3nc(=O)c(N4CCOCC4)c(N)n3c2=O)cc1 | > 100 | > 100 | > 100 | > 100 | > 100 µM | > 100 |  | > 100 |  |  | > 100 µM |  |  |  |  | 
18 | C/C(=C\c1ccccn1)c1ccccn1 | > 100 | > 100 | > 100 |  | > 100 µM | > 100 | > 100 | > 100 | > 100 µM |  | > 100 µM |  |  |  |  | 

Row | SMILES | TGI [1] [µM] | TGI [2] [µM] | TGI [3] [µM] | TGI [4] [µM] | TGI [5] | TGI [6] [µM] | TGI [7] [µM] | TGI [8] [µM] | TGI [9] | GI50 [10] | TGI [10] | GI50 [5] | GI50 [9] | GI50 [2] [µM] | GI50 [4] [µM] | GI50 [7] [µM]
19 | N#Cc1nc(CCCCCN2C(=O)c3ccccc3C2=O)oc1N | > 100 | > 100 | > 100 | > 100 | > 100 µM | > 100 | > 100 | > 100 | > 100 µM |  |  |  |  |  |  | 
20 | Cc1ccccc1-n1c(C)nc2c1C(=O)c1ccccc1C2=O | > 100 |  |  | > 100 | > 100 µM | > 100 |  | > 100 | > 100 µM |  | > 100 µM |  |  |  |  | 
21 | Cc1ccc(C(=O)N/N=C(\N=Nc2cccc(Cl)c2)c2ccc(N(CCC#N)CCC#N)cc2C)cc1 | > 100 | > 100 |  | > 100 | > 100 µM | > 100 | > 100 | > 100 | > 100 µM |  | > 100 µM |  |  |  |  | 
22 | Cc1ccc(C(=O)O)c(CC2Cc3c(C)cccc3C2=O)c1 (configuration not stated) | > 100 | > 100 | > 100 | > 100 | > 100 µM | > 100 | > 100 | > 100 | > 100 µM |  |  |  |  |  |  | 
23 | CC(=O)/C(=C/n1c(=S)[nH]c2ccccc21)C(=O)Nc1ccccc1C | > 100 | > 100 |  | > 100 | > 100 µM | > 100 |  | > 100 | > 100 µM |  | > 100 µM |  |  |  |  | 
24 | Cc1ccc(C2=NOC(=O)[C@@H]3CCCC[C@@H]23)cc1 |  | > 100 | > 100 | > 100 | > 100 µM | > 100 | > 100 | > 100 |  |  | > 100 µM |  |  |  |  | 
25 | CC12N=NN(c3ccc([N+](=O)[O-])cc3)C1(O)c1ccccc1C2=O (configuration not stated) | > 100 |  |  | > 100 | > 100 µM | > 100 |  | > 100 |  |  |  |  |  |  |  | 
26 | OCC1OC(n2cnc3cncnc32)C(O)C1O (configuration not stated) | 5.8 |  |  | 3.33 | 3.68 µM | 3.17 |  | 3.75 | 3.41 µM |  | 3.69 µM |  |  |  |  | 
27 | C/C=C\C(CC(=O)NCCc1cn(C(=O)OCc2ccccc2)c2ccccc12)CC(=O)OC (configuration not stated) | > 100 | > 100 | > 100 |  | > 100 µM | > 100 | > 100 | > 100 | > 100 µM |  | > 100 µM |  |  |  |  | 
28 | Clc1ccc(Cc2nc3ccccc3nc2-c2cccc(Br)c2)cc1 | 35.6 | 24.5 | 3.57 | 33.1 | 26.6 µM | 8.09 | 4.88 | 7.7 | 17.8 µM |  |  |  |  |  |  | 
29 | CC(C)=CCC/C(C)=C/CC/C(C)=C/Cc1c(O)c2ccccc2oc1=O | > 100 |  |  | > 100 | > 100 µM | > 100 |  | > 100 | > 100 µM |  |  |  |  |  |  | 
30 | COC(=O)C1CCC(=O)N1C(=O)Cc1ccc(OC)cc1 (configuration not stated) | > 100 |  |  | > 100 | > 100 µM | > 100 |  | > 100 |  |  | > 100 µM |  |  |  |  | 
31 | Cc1cc(=O)n2nc(SCc3ccccc3)sc2n1 | > 100 | > 100 | > 100 | > 100 | > 100 µM | > 100 | > 100 |  |  |  | > 100 µM |  |  |  |  | 
32 | c1ccc(CCN2CCc3[nH]c4ccccc4c3C2)cc1 | 62.3 | > 100 |  | 71.4 | > 100 µM | 44.7 |  | 30.4 |  |  | 33.3 µM |  |  |  |  | 
33 | CO/C(=N\N=C\c1cccc(Cl)c1)c1ccncc1 | > 10 | > 10 |  | > 10 | > 10 µM | > 10 | > 10 | > 10 | > 10 µM |  |  |  |  |  |  | 
34 | Clc1ccc(N2N=C(c3cccc(Nc4ccncc4)c3)CC2c2ccc3c(c2)OCO3)cc1 (configuration not stated) |  | 3.39 |  | 33.1 | 3.37 µM |  | 3.27 |  | 4.59 µM |  |  | 1.74 µM | 2.09 µM | 1.84 | 7.28 | 1.58
35 | Cn1nc2n(c1=O)CCCN2 | > 100 | > 100 | > 100 | > 100 | > 100 µM | > 100 | > 100 | > 100 |  |  | > 100 µM |  |  |  |  | 
36 | Cc1cc(O)c(C(C)C)cc1SC#N |  | 28.8 | 67.4 |  | 33.3 µM | 88.9 | 34.4 | 38.1 | 35.7 µM |  | 31.9 µM |  |  |  |  | 
